Measured values: US20150359794A1, “IMPAIRMENT OF THE LARGE RIBOSOMAL SUBUNIT PROTEIN RPL24 BY DEPLETION OR ACETYLATION” (Buck Institute for Research on Aging, priority 2014, published 2015)

How the values were obtained:
SKBR3 cells = assay: Polysome profiling and western blot of 60S fractions; assay type: cell-based, human; settings: TSA 1 μM, 2 h
Method: Since RPL24 depletion decreased the levels of three cap-dependently translated proteins, the impact of RPL24 knockdown on overall ribosome and polysome formation in these cells was evaluated. Polysome profiling, which utilizes continuous sucrose gradient fractionation to separate free 40S and 60S ribosomal subunits, 80S ribosomes, and polysomes (two or more ribosomes on one mRNA) was used. […] This observed increase in 40S and 60S subunits relative to 80S ribosomes implies a defect in 40S-60S joining induced by the RPL24 knockdown. Since eIF6 bound to the pre-60S subunit prevents joining of the 40S and 60S subunits and occurs adjacent to RPL24 on 60S (FIG. 3c), immunoblotting on all 60S-containing polysome fractions to evaluate the impact of RPL24 knockdown on eIF6 retention was performed. […] Associated with the observed 60S loss of RPL24 was a striking increase in 60S-associated eIF6 (FIG. 3d). To rule out the possibility that the observed 60S retention of eIF6 might be a false-positive or non-specific artifact of lentiviral expressed RPL24 shRNA, a functionally deficient truncation mutant of RPL24 that eliminates the last 17 amino acids was overexpressed. Polysome profiling of 293T cells expressing intact versus truncated RPL24 protein confirmed that truncated RPL24 can induce 60S retention of eIF6 (FIG. 8).
Polysome profiles to separate the 40S, 60S, 80S and polysomes are carried out by layering cell lysates over a continuous 10-50% sucrose gradient and spun at 38,000 rpm for 2 h as previously described. Fractions are collected using a Retriever 500 fraction collector with a UV (UA6) detector (ISCO Teledyne (Lincoln, Nebr.)).
FIG. 3: RPL24 knockdown reduces 80S and polysome assembly while increasing 60S retention of eIF6. […] (a) Western blots using the indicated antibodies were performed on total cell lysates to assess knockdown efficiency. (b) Lysates were applied to a continuous sucrose gradient (10-50%) and ultracentrifugation followed by fractionation was performed to separate ribosomal subunits and polysomes. […]

[1] = system: cyclin D1, survivin, and NBS1; assay: Western blot of cap (eIF4E)-dependently translated proteins; assay type: cell-based, human; settings: SKBR3 cells
Method: Since the translation-dependent checkpoint mechanism remains undefined, the impact of RPL24 depletion in a model human breast cancer cell line, SKBR3, sensitive to eIF4E-regulated and cap-dependent translation inhibition was evaluated. Two different RPL24-directed shRNA-expressing lentiviruses were used to decrease RPL24 protein expression by approximately 70% (FIG. 2a). […] Associated with RPL24 depletion and growth inhibition was a marked reduction in the expression of three different eIF4E-regulated and cap-dependent transcripts necessary for cell proliferation (75% reduction in cyclin D1), survival (46% reduction in survivin), and DNA repair and integrity (30% reduction in NBS1). Protein levels of two housekeeping genes not regulated by eIF4E, GAPDH and β-tubulin, were not affected by RPL24 depletion (FIG. 2a).
Cells are lysed in RIPA buffer (10 mM Tris-HCL (pH 8.0), 1 mM EDTA, 0.5 mM EGTA, 1% triton X-100, 0.1% sodium deoxycholate, 0.1% SDS, 140 mM NaCl, 20 mM NaF, Complete EDTA-free protease inhibitor tablets (Roche Diagnostics Corp., Basel, Switzerland) and the phosphatase inhibitor cocktail PhosSTOP (Roche)), the latter two as indicated by the manufacturer's protocol. Equal amounts of protein are diluted in 2× sample buffer. Immunoblots on PVDF (Polyvinyldene Fluoride) membranes are blocked with nonfat milk in tris-buffered saline with 0.05% tween-20 (TBST). The following antibodies are incubated with membranes in 5% nonfat milk in TBST: RPL24 (Proteintech, Chicago, Ill.), Cyclin D1, Rack1, RPL4 (Santa Cruz Biotechnology, Santa Cruz, Calif.), NBS1, GAPDH (EMD Millipore Corporation, Chicago, Ill.), Survivin, β-tubulin, acetyl-lysine, eIF6, acetyl-H2B, H2B, (Cell Signaling Technology, Boston, Mass.), acetyl-tubulin, tubulin (Sigma Aldrich (St. Louis, Mo.))
FIG. 2: RPL24 knockdown reduces breast cancer cell viability while inhibiting cap (eIF4E)-dependent expression of proliferation, survival and genome stability proteins. SKBR3 cells were infected with lentiviruses expressing a GFP control or RPL24-targeting shRNA. After one week of puromycin selection, cells were plated in 96-well plates for viability assays and lysates were taken in parallel for western blots. (a) Western blots were performed on lysates from an equal number of cells using antibodies toward the indicated proteins. (b) Viability assay readings were taken three hours after plating (day 0) and four days after plating (day 4). The day 4 results were normalized for plating efficiency using the day 0 values. Error bars represent three replicate samples.
FIG. 5: Like RPL24 knockdown, histone deacetylase inhibition reduces 80S assembly while increasing 60S retention of eIF6 and reduces expression of cap (eIF4)-dependently translated proteins (a,b) SKBR3 cells were treated with TSA (1 μM, 2 h). […]

SMILES: CC(/C=C/C(=O)NO)=C\[C@@H](C)C(=O)c1ccc(N(C)C)cc1 [TSA, trichostatin-A]
- 60S RPL24 levels (SKBR3 cells): without reducing
- 60S retention of eIF6 (SKBR3 cells): increasing
- 80S and polysome assembly (SKBR3 cells): reduced
- cyclin D1 levels ([1]; 8 h treatment): reduced
- expression of NBS1 relative to GAPDH and β-tubulin ([1]; 24 h treatment): reduced
- expression of cyclin D1 relative to GAPDH and β-tubulin ([1]; 24 h treatment): reduced
- expression of survivin relative to GAPDH and β-tubulin ([1]; 24 h treatment): reduced
